Assay results taken from article PMC3706879, “The neurotrophic compound J147 reverses cognitive impairment in aged Alzheimer's disease mice” (Alzheimer's Research & Therapy, 2013).

What was measured:
normal rodents = system: normal rodents; set-up: method as in PMID 22194796; conditions: cited from earlier work
[1] = target: T1, monoamine oxidase B (MAO B) (Homo sapiens, UniProt P27338); assay: monoamine oxidase B assay (MDS Pharma Services); assay type: biochemical
T1 sequence (P27338 1-520): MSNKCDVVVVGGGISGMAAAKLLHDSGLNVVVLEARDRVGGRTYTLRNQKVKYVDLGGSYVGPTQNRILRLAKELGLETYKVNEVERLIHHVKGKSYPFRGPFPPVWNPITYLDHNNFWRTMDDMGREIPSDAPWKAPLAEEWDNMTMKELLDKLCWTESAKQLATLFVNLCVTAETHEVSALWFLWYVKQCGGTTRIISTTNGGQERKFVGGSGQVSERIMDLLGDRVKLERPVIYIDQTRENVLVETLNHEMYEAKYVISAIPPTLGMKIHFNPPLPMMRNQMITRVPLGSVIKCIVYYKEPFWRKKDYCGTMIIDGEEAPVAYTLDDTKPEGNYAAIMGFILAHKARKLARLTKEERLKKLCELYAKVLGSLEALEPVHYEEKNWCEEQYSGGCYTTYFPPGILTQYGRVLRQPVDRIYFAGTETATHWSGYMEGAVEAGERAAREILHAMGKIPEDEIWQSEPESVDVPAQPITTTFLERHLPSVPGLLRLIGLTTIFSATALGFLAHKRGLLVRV
Protocol: All screening was done at 10 μM J147 by various contract research organizations (CROs), including MDS Pharma Services (King of Prussia, PA, USA), Ricerca, now Panlabs (Concord, OH, USA), Ambit (La Jolla, CA, USA), Caliper (Hopkinton, MA, USA) and NovaScreen Biosciences (Hanover, MD, USA) by standard protocols described in their catalogs.

APP/swePS1ΔE9 mice = system: APP/swePS1ΔE9 mice; set-up: method as in PMID 22194796; conditions: cited from earlier work
Rats = assay: acute toxicity in rats (Absorption Systems); assay type: in vivo; conditions: 2 g/kg
Protocol: The pharmacokinetics of J147 in the mouse brain and plasma were evaluated using standard procedures. Blood and brain distribution of J147 following per oral (PO) administration was plotted for mice as a function of time (Figure 5). […] Additional de-risking and target identification screens were carried out at 10 μM J147 by various CROs (Table 2). […] All original data are available upon request.

C57BL/6J mice = assay: two-day water maze, scopolamine induced memory impairment; assay type: in vivo; conditions: scopolamine 1 mg/kg i.p.; J147 200 ppm, donepezil 20 ppm in food for two weeks
Protocol: A total of 60 male mice aged eight weeks were housed 4 per cage and were divided into five groups with 12 mice per group. Treatments were administered in the food (TestDiet® 5015, Richmond, IN, USA) for a period of two weeks before commencement of behavioral testing. […] Following two weeks of treatment, memory impairment was induced by intraperitoneal (i.p.) injection of scopolamine (1 mg/kg) 30 minutes prior to each of the following behavioral tests: Y-maze, probe trial of the water maze and contextual and cued fear conditioning. Mice were allowed to rest for two days between each behavior test. All mice received scopolamine except for one of the control groups, which received saline as a control. Mice were sacrificed 24 hours after the last behavioral test for tissue harvesting.
Spatial memory was determined using the two-day water maze in 23-month-old huAPPswe/PS1 transgenic mice fed J147 at 200 ppm in food for the previous three months. The protocol was adapted from a publication by Gulinello and colleagues. Water temperature remained at 27°C throughout the experiment. […] The time it took each mouse to find the hidden platform was measured as escape latency. […] All trials were recorded using the EthoVision Software and statistics were computed using GraphPad Instat software (GraphPad Software, San Diego, CA, USA).

Question: With COc1cccc(/C=N/N(C(=O)C(F)(F)F)c2ccc(C)cc2C)c1 [J147, (E)-N-(2,4-dimethylphenyl)-2,2,2-trifluoro-N'-(3methoxybenzyli-dene) acetohydrazide] as the compound, how does the “memory in normal rodents” value (normal rodents) read?
Answer: facilitates memory in normal rodents

Question: What about the “inhibition, monoamine oxidase B” value ([1]; 10 μM J147) of the same compound?
Answer: greater than 60%

Question: And the EC50 ([1]; dose response, re-assay after screening)?
Answer: 1.88 µM

Question: And the “loss of synaptic proteins and cognitive decline” value (APP/swePS1ΔE9 mice; administered to three-month-old APP/swePS1ΔE9 mice for seven months)?
Answer: prevents the loss of synaptic proteins and cognitive decline

Question: What about the “levels of BDNF in the hippocampus” value (APP/swePS1ΔE9 mice; huAPP/PS1 transgenic mice) of the same compound?
Answer: increases the levels of BDNF

Question: What about the acute toxicity (Rats) of the same compound?
Answer: negative results

Question: What about the “spatial memory (time to find hidden platform)” value (C57BL/6J mice) of the same compound?
Answer: rescued this deficit in spatial memory
